The numbers were not newly measured in patent US20240009133A1, “METHODS OF TREATING AUTOIMMUNE OR INFLAMMATORY CONDITIONS WITH CANNABIDIOL OR ITS DERIVATIVES/ANALOGS” (ORCOSA INC., priority 2020, published 2024), which cites them from elsewhere.

For this data set the following is noted: oral, randomized control trial in Crohn's disease.

Structures are written as SMILES.

As for `C=C(C)[C@@H]1CCC(C)=C[C@H]1c1c(O)cc(CCCCC)cc1O` [CBD, cannabidiol], the efficacy entry is recorded as “no statistical efficacy demonstrated” and the safety entry was “safe”.
